Reference: patent publication US12521419B2, “Use of anti-aging glycopeptides to enhance pancreatic cell health, survival and improve transplant outcome” (Protokinetix Inc., priority 2014, dated 2026)

Legend:
[1] = test system: human islets; test: Viability by fluorescent membrane integrity assay (syto green/ethidium bromide); type: cell-based; conditions: 24 h ± AAGP then 24 hr tacrolimus 10 ng/mL
Protocol: After 24 hr of culture, islets are assessed for recovery, viability and function. Recovery rate is calculated as the percentage of surviving islets after 24 hr culture in comparison to the initial count for each condition. Viability is assessed using a fluorescent membrane integrity assay with counter-stains syto green/ethidium bromide (Cedarlane Laboratories, Burlington, ON, and Sigma-Aldrich, ON) (Islet isolation for clinical transplantation. In: Shahidul. M, (ed). The islets of Langerhans. New York: Springer, 2010; Ranuncoli A, et al. Cell transplantation 2000; 9(3):409-414; Ricordi C. et al. Acta diabetologica latina 1990; 27(3):185-195; and Barnett M J et al. Cell transplantation 2004; 13(5):481-488).

[2] = test system: human islets; test: Glucose-stimulated insulin secretion (GSIS) perifusion assay; type: cell-based; conditions: 24 h ± AAGP then 24 hr tacrolimus 10 ng/mL; Tac− 158.8
Protocol: Islet secretory function is assessed by monitoring in vitro insulin secretory profile during continuous glucose stimulation, as described by Cabrera et al Cell transplantation 2008;16(10):1039-1048. This in vitro perifusion assay is a modality of continuous Glucose-Stimulated Insulin Secretion (GSIS) test to stress islets in alternating normoglycemic and hyperglycemic environment to model physiological islet response. Supernatants from the perifusion assay are collected and insulin levels are determined using a commercially available ELISA kit (Insulin ELISA kit. Mercodia Inc. Pittsburgh, PA, USA). Results are expressed as fold-change of insulin secretion compared to the low (2.8 mMol) glucose stimulation baseline, normalized for 100 IEQ.

[3] = test system: human islets; test: Static GSIS assay (stimulation index); type: cell-based; conditions: day 3, tacrolimus present
From the text: Similar experimental conditions were recreated (human islets cultured with and without AAGP™ and exposed to tacrolimus) and aliquots of approximately 100 IEQ were collected on day 3 for each corresponding group to undergo s-GSIS assay and simultaneous intracellular insulin content. Islets were then extensively washed to remove tacrolimus and left in culture for 4 more days, when sampling and comparative testing was repeated on day 7.

[4] = test system: mouse splenocytes; test: Allogeneic mixed lymphocyte reaction, T cell proliferation by CFSE staining; type: cell-based; conditions: vs IgG control, n=4
From the text: The assay measures T cell proliferative response by levels of CFSE staining.

[5] = test system: human islets; test: Intra-islet calcium concentration; type: cell-based; conditions: Tac−, Tac+AAGP groups
Protocol: Various electrophysiology studies were performed on human islets to elucidate a potential mechanism of action for the AAGP™ by characterizing the CNI-related injury and its avoidance.

[6] = test system: human islets; test: Capacitance measurement as indicator of exocytosis upon high glucose stimulation; type: cell-based
Protocol: Complementary capacitance studies were performed with these same conditions as an indirect indicator of exocytosis upon high glucose stimulation.

[7] = test system: human islets transplanted under the kidney capsule; test: Proinflammatory cytokines and chemokines in homogenized graft 24 h post-transplant; type: in vivo, immunodeficient mice; conditions: 24 h after transplant, 1,000 IEQ, islets cultured with tacrolimus ± AAGP, n=3
Protocol: After 24 hr exposure to tacrolimus, samples from culture media of all groups are frozen and relevant cytokines and chemokines (IFN-γ, IL-1β, IL-6, IL-10, IL-12, Keratinocyte-derived Chemokine (KC), and TNF-α) are measured using a Multi-Spot Human ProInflammatory 7-Plex Ultra-Sensitive kit (Meso Scale Discovery®, Gaithersburg, MD, USA), analyzed on the SECTOR™ Imager (Meso Scale Discovery®, Gaithersburg, MD, USA). Results are expressed as absolute values (pg/mL), and CMRL culture media alone is used as a control for comparison.
Eight to 12 week immunodeficient mice (B6.129S7-Rag1^tm1Mom) are obtained from the Jackson Laboratory (Bar Harbor, ME, USA) and housed under specific pathogen-free conditions with access to food and water ad libitum. Animals are cared for according to the guidelines of the Canadian Council on Animal Care, and ethical approval is obtained from the animal welfare committee at the University of Alberta.
Animals are considered diabetic after two consecutive blood glucose measurements are documented≥18 mmol/L.
Ten animals per group received approximately 1,000 IEQ human islets transplanted under the capsule of the left kidney as described previously (19).
Three mice per group underwent nephrectomy and are euthanized 24 hr post-transplant to perform acute determination of proinflammatory cytokines, cleaved capase-3 and TUNEL in the graft area. In all cases the islet graft is excised from the kidney, weighed, flash frozen in liquid nitrogen and stored at −80° C. Tissue samples are subsequently lysed using 1 ml of lysis buffer (0.15 M NaCl, 1 mM Tris-HCL, 0.1% SDS, 0.1% Triton X-100, 20 mM Sodium deoxycholate, 5 mM EDTA) per 200 mg of tissue. Lysates are then homogenized (PowerGen, Fisher Scientific, ON, Canada) on ice for 30 sec×2 replications, and sonicated (VirSonic, VirTis, NY, USA) with 10 quick pulses while on ice. Cellular debris is pelleted by centrifugation at 14,000 rpm for 10 min at 4° C. and the resulting supernatant is collected and placed in a microcentrifuge tube containing 10 μl of a protease inhibitor cocktail (Sigma-Aldrich Canada Co., Oakville, ON, Canada) per 1 ml of lysate (1:100).
Graft samples are assayed (using the corresponding mouse kit) for pro-inflammatory cytokines/chemokines, caspase-3 and TUNEL staining, as previously described. All determinations are adjusted per gram of tissue.
Further in vivo testing is performed to complement our in vitro findings. Using the same study groups (Tac−, Tac+ and Tac+AAGP™) minimal mass (1,000 IEQ) islet transplants are performed in chemically-induced diabetic immunodeficient mice (n=10 per group). […]

[8] = test system: human islets transplanted under the kidney capsule; test: Intra-graft apoptosis 24 h post-transplant (cleaved caspase-3, TUNEL); type: in vivo, immunodeficient mice; conditions: graft 24 h after transplant
Protocol: Apoptosis is measured in all groups using a cleaved caspase-3 spectrophotometric assay and Terminal deoxynucleotidyl transferase dUTP nick end labeling (TUNEL) staining. All determinations are made on normalized groups of 100 IEQ and their corresponding culture media.
Frozen media samples are used to determine cleaved caspase-3 increase using a spectrophotometric assay (EMD Millipore™. Billerica, MA, USA). Again, CMRL culture media alone with additives and no cells is used as a control, and results are expressed as fold-change increase compared to the control media.
For TUNEL staining (DeadEnd™ Apoptosis Detection System, Promega, Madison, WI), islets are fixed in formalin, processed and embedded in paraffin. Co-staining is performed to identify the graft (insulin), apoptotic cells and all nuclei present in the field. Apoptosis is quantified by percentage of positive TUNEL stained area using imageJ software.
Three mice per group underwent nephrectomy and are euthanized 24 hr post-transplant to perform acute determination of proinflammatory cytokines, cleaved capase-3 and TUNEL in the graft area. In all cases the islet graft is excised from the kidney, weighed, flash frozen in liquid nitrogen and stored at −80° C. […]

C=CC[C@@H]1/C=C(\C)C[C@H](C)C[C@H](OC)[C@H]2O[C@@](O)(C(=O)C(=O)N3CCCC[C@H]3C(=O)O[C@H](/C(C)=C/[C@@H]3CC[C@@H](O)[C@H](OC)C3)[C@H](C)[C@@H](O)CC1=O)[C@H](C)C[C@@H]2OC.O [Tac+, tacrolimus]
cell viability by membrane integrity stain [1]: no difference in cell viability
GSIS perifusion AUC [2]: 8.22
stimulation index (s-GSIS) [3]: 1.4
T cell proliferation (CD8+ and CD4+) [4]: significantly decreased
calcium concentration in islets [5]: neither tacrolimus nor AAGP™ affected the calcium concentration
cumulative capacitance area under the curve [6]: 39.08
IL-1β level in graft [7]: 17.81 pg/mL/g-tissue
IL-6 level in graft [7]: 147.8 pg/mL/g-tissue
KC (keratinocyte chemokine) level in graft [7]: 9.79 pg/mL/g-tissue
TNF-α level in graft [7]: 1.63 pg/mL/g-tissue
cleaved caspase-3, fold-change increase relative to kidneys of naïve mice ([8]; n=3): 3.14
percentage of TUNEL positive cells ([8]; control 14.9%): 53.3%
